Measurements as given in patent publication US20240043818A1, “Engineered Cells for Increased Collagen Production” (Northeastern University, priority 2020, published 2024).

Key:
[1] = tested on: baboon liver myofibroblasts; details: cited from earlier work
[2] = tested on: corneal fibroblasts; experiment: Media additive screening (Phase 1) and full factorial DOE (Phase 2), collagen production by SirCol; assay type: cell-based; details: Phase 1 screening
Protocol: Based on a weighted scoring (Table 13), the seven best additives were selected and were added to the fibroblast media separately in a Phase 1 screening study using concentrations presented in Table 14. […] For this study a three-level design was chosen in order to determine a maxima. This phase of the experiment determined which additives have a statistically significant effect on collagen production and what concentration of each additive has the highest positive impact.
The seven additives also allowed for minimizing the number of plates and maximizing the number of used wells. […] In phase 1 of testing 7 media additives were tested at 3 concentrations with a sample size of 4 for each condition. Additives and concentrations used were determined by the prior research described above. Collagen amount per well was quantified, but cell counts were not performed. Collagen produced per cell was estimated based on the number of cells expected per well. Some groups fell below the SirCol standard curve range of 1-50 ug. These values were represented as 1.00 ug/100 uL and were assigned the lowest rating for efficacy in the resulting trade study.
For the three additives that advanced the highest ranking of each additive was used as the DOE centerpoint. Due to a lack of available stock, ACE low was substituted for ACE medium.
In phase 2 the top performing media additives were fed into a full factorial DOE. The concentrations used were determined by a variety of factors including a trade study, remaining laboratory supplies, and finally the lower cost associated with a lower concentration in a near-tie situation. A near-tie situation was defined by the group as concentrations of the same chemical that scored within 1% total score. […] For acetaldehyde, due to a stock issue the low concentration at 0.2 mM was chosen. For the 100% concentration limit needed to complete construction of the full-factorial DOE plan, each of these values was doubled, which corresponds to the medium conditions from phase 1.

[3] = tested on: human dermal fibroblasts; details: cited from earlier work
[4] = tested on: cell types including bovine, mouse, and human; details: cited from earlier work
[5] = tested on: fibroblast migration; details: dose-dependent, 0.25 and 0.5 mM; cited from earlier work
[6] = tested on: any cell type; details: cited from earlier work
[7] = tested on: collagen production; details: cited from earlier work
[8] = tested on: myofibroblasts and fibroblasts; details: 50 mM; cited from earlier work
[9] = tested on: human lung fibroblasts; details: 100 ng/mL; cited from earlier work
[10] = tested on: human chondrocytes; details: cited from earlier work
[11] = tested on: rat liver M cells; details: concentration in media as low as 1 ng/ml; cited from earlier work
[12] = added to the culture media in concentrations up to 300 μM

CC=O [ACE, Acetaldehyde]
levels of collagen produced [1, 12]: increase the levels of collagen
collagen production versus control, single additive [2]: higher collagen production than the control
levels of collagen produced [3, 12]: increase the levels of collagen

O=C1O[C@H]([C@@H](O)CO)C(O)=C1O [ASC, Ascorbic acid]
collagen production versus control, single additive [2]: higher collagen production than the control
production of collagen [4]: beneficial

N#CCCN [BAPN, β-aminopropionitrile]
fibroblast migration [5]: inhibited fibroblast migration
collagen production versus control, single additive [2]: higher collagen production than the control
adverse effects on cell viability, collagen synthesis, or non collagen protein synthesis [6]: No research with any cell type has shown adverse effects

N[C@@H](CCC(=O)O)C(=O)O [Glutamate]
increase of collagen production from the control ([3]; glutamate-supplemented media): 400%

CC(O)C(=O)O (stereo not shown) [Lactate]
collagen production ([1]; 5 mM added to media): statistically significant increase
collagen production ([3]; 40 mM): decrease collagen production

O=C(O)[C@@H]1CCCN1 [Proline]
maximum increase in collagen production compared to the control value ([3]; 5-10 mM in media): 200%

Cn1c(=O)c2c(ncn2C)n(C)c1=O [caffeine]
effect on collagen production ([7]; concentrations in media as little as 1-5 mM): negative effect

CCO [ethanol]
effect on the level of collagen production [8]: no direct effect

NC(=O)CC[C@H](N)C(=O)O [glutamine]
maximum benefit for the production of collagen, % of the control ([3]; at 250 μM): ~300%

O=C(O)C1CCC=N1 (stereo not shown) [pyrroline-5-carboxylate]
optimal concentration for collagen production [3]: 1 mM
time at which the effect on collagen production can be seen [3]: 6 h
maximum increase of collagen production, % of the control value ([3]; optimal concentration of 1 mM): 260%

IGF-1: Insulin-like Growth Factor 1
maximum increase of collagen production from control [9]: 300%
correlation between level in media and production of collagen ([3]; manipulation of rat serum applied to media): positive correlation

IL-1p: Interleukin type 1p as printed, glycoprotein associated with immune response
lowest concentration needed for an observable, positive effect on collagen production [10]: 2.5 µM

TGF-β
concentration for maximum efficacy [3]: 12.5 ng/mL

TGF-β1: Transforming Growth Factor Beta 1
collagen production versus control [11]: unquantified increase

B1: IL-10: Interleukin, glycoprotein associated with immune response (protein, UniProt P22301 19-178, looked up)
Interleukin-10: SPGQGTQSENSCTHFPGNLPNMLRDLRDAFSRVKTFFQMKDQLDNLLLKESLLEDFKGYLGCQALSEMIQFYLEEVMPQAENQDPDIKAHVNSLGENLKTLRLRLRRCHRFLPCENKSKAVEQVKNAFNKLQEKGIYKAMSEFDIFINYIEAYMTMKIRN
effect on level of collagen production [7]: reduce the level of collagen production

B2: IL-4: Interleukin, glycoprotein associated with immune response (protein, UniProt P05112 25-153, looked up)
Interleukin-4: HKCDITLQEIIKTLNSLTEQKTLCTELTVTDIFAASKNTTEKETFCRAATVLRQFYSHHEKDTRCLGATAQQFHRHKQLIRFLKRLDRNLWGLAGLNSCPVKEANQSTLENFLERLKTIMREKYSKCSS
maximum positive effect on collagen production, increase from control [7]: 250%
